This data set deals with HepG2 cells. The class given is cell-based. The note with it: HepG2, amounts used for photocrosslinking.

Procedure: Cell culture and viability assays in the presence of photopolymerizing agents. HepG2 cells (American Type Culture Collection, Manassas, Va.) were cultured in 175 cm^2 flasks (Fisher, Springfield, N.J.) and were passaged preconfluency no more than 13 times. The cells were maintained in minimal essential medium (MEM; Gibco, Grand Island, N.Y.) supplemented with 5% fetal bovine serum, 100 ug/mL penicillin, and 100 ug/mL streptomycin and incubated at 5% CO2 and 37° C. The cells to be incorporated into hydrogels were added to the prepolymer solution containing initiator and were mixed gently prior to UV exposure.
In order to explore the effects of photoinitiator and UV exposure on cell death, individual components were tested in HepG2 cultures. 3.0×10^5 cells were seeded in six-well culture dishes and allowed to proliferate until near confluency. A solution of 300 mg/mL of 2,2-dimethyl-2-phenyl-acetophenone (Aldrich) in 1-vinyl-2-pyrrolidinone (Sigma) was added to MEM in concentrations of 0, 3, 5, and 10 ul/ml. […] Cell viability was measured by an Mi viability assay, which forms a purple precipitate by cleavage of the tetrazolium ring by mitochondrial dehydrogenase enzymes. […] The absorbance was measured at 570 nm with a SpectraMax Plus spectrophotometer (Molecular Devices, Sunnyvale, Calif.). […]

On to `C=CN1CCCC1=O` [1-vinyl-2-pyrrolidinone], for which the “toxicity to cells of initiator solvent alone” value was “not found to be toxic”.

Values taken from patent US8906684B2, “Three dimensional cell patterned biopolymer scaffolds and methods of making the same” (The Regents of the University of California, priority 2002, dated 2014).
